Data from patent US5670508A, “2-amino-6-alkyl-5-(4-substituted-1-piperazinyl) pyrimidin-4-ones, the preparation and use thereof” (National Science Council, priority 1995, dated 1997).
Like-named read-outs stand apart in the source and are kept apart here.

Legend:
[1] = tested on: human CNS tumor cell lines; assay: Cytotoxicity, NCI disease-oriented antitumor screening, CNS tumor cell lines; format: cell-based; conditions: for selective cytotoxicity on human CNS tumor cell lines: in words
Text: (§1) Compounds were subjected to the disease-oriented antitumor screening on 60 cancer cell lines in the National Cancer Institute of the U.S.A. (Grever, M. R. et al., Seminars in Oncology 1992, 19, 622~638). Results of cytotoxicity are summarized in Table 1, GI50 values represent the concentrations corresponding to 50% of growth inhibition.

[2] = tested on: human lung cancer cell lines; assay: Cytotoxicity, NCI disease-oriented antitumor screening, lung cancer cell lines; format: cell-based; conditions: range of GI50's for the lung cancer cell lines, read-out: Cytotoxic activity (GI50), lung
Text: as §1

[3] = tested on: human breast cancer cell lines; assay: Cytotoxicity, NCI disease-oriented antitumor screening, breast cancer cell lines; format: cell-based; conditions: range of GI50's for the breast cancer cell lines, read-out: Cytotoxic activity (GI50), breast
Text: as §1

[4] = tested on: human colon cancer cell lines; assay: Cytotoxicity, NCI disease-oriented antitumor screening, colon cancer cell lines; format: cell-based; conditions: range of GI50's for the colon cancer cell lines, read-out: Cytotoxic activity (GI50), colon
Text: as §1

CNS SNB75 cell line = assay: Cytotoxicity, NCI disease-oriented antitumor screening, CNS SNB75 cell line; format: cell-based; conditions: Homo sapiens, SNB-75
Text: as §1

[5] = tested on: human prostate cancer cell lines; assay: Cytotoxicity, NCI disease-oriented antitumor screening, prostate cancer cell lines; format: cell-based; conditions: range of GI50's for the prostate cancer cell lines, read-out: Cytotoxic activity (GI50), prostate
Text: as §1

[6] = tested on: human renal cancer cell lines; assay: Cytotoxicity, NCI disease-oriented antitumor screening, renal cancer cell lines; format: cell-based; conditions: range of GI50's for the renal cancer cell lines, read-out: Cytotoxic activity (GI50), renal
Text: as §1

[7] = tested on: human ovarian cancer cell lines; assay: Cytotoxicity, NCI disease-oriented antitumor screening, ovarian cancer cell lines; format: cell-based; conditions: range of GI50's for the ovarian cancer cell lines, read-out: Cytotoxic activity (GI50), ovarian
Text: as §1

CNS U251 cell line = assay: Cytotoxicity, NCI disease-oriented antitumor screening, CNS U251 cell line; format: cell-based; conditions: Homo sapiens, U-251, read-out: Cytotoxic activity (GI50), CNS
Text: as §1

[8] = tested on: glycinamide ribonucleotide transformylase (GAR-Tfase); conditions: in words; Baldwin et al, 1991; cited from earlier work
[9] = CNS SNB75 cell line, read-out: Cytotoxic activity (GI50), CNS
[10] = SNB75 CNS cell line, read-out: GI50

Structure (SMILES) | selective cytotoxicity on human CNS tumor cell lines [1] | GI50 [2] [µM] | GI50 [3] [µM] | GI50 [4] [µM] | GI50 (CNS SNB75 cell line; [9]) [nM] | GI50 [5] [µM] | GI50 [6] [µM] | GI50 [7] [µM] | GI50 ([1]; Homo sapiens, CNS cell lines, no single line specified, read-out: Cytotoxic activity (GI50), CNS) [µM] | GI50 (CNS SNB75 cell line; [10]) [nM] | GI50 (CNS U251 cell line) [µM] | inhibition of GAR-Tfase [8]
Cc1nc(N)[nH]c(=O)c1N1CCN(c2ccc(C#N)cc2)CC1 [Compound 6, 4-[4-(2-Amino-6-methyl-4(3H)-oxopyrimidin-5-yl)piperazin-1-yl]benzonitrile] | selective cytotoxicity | > 100 | > 100 | > 100 | 40 | > 100 | > 100 | 93 | – | – | – | –
Cc1nc(N)[nH]c(=O)c1N1CCN(c2ccc(C(=O)O)cc2)CC1 [Compound 7, 4-[4-(2-Amino-6-methyl-4(3H)-oxopyrimidin-5-yl)piperazin-1-yl]benzoic acid] | – | > 100 | > 100 | > 100 | – | > 100 | 1.39 | > 100 | > 100 | – | – | –
CCOC(=O)CCC(NC(=O)c1ccc(N2CCN(c3c(C)nc(N)[nH]c3=O)CC2)cc1)C(=O)OCC (stereo not shown) [Compound 8, Diethyl N-[4-[4-(2-Amino-6-methyl-4(3H)-oxopyrimidin-5-yl)piperazin-1-yl]benzoyl]glutamic acid] | selective cytotoxicity | > 100 | > 100 | > 100 | < 10 | > 100 | > 100 | > 100 | – | < 10 | – | –
Cc1nc(N)[nH]c(=O)c1N1CCN(c2ccc(C(=O)NC(CCC(=O)O)C(=O)O)cc2)CC1 (stereo not shown) [Compound 9, N-[4-[4-(2-Amino-6-methyl-4-(3H)-oxopyrimidin-5-yl)piperazin-1-yl]benzoyl]glutamic acid] | selective cytotoxicity | > 100 | > 100 | > 100 | < 10 | > 100 | > 100 | > 100 | – | < 10 | – | –
Cc1nc(N)[nH]c(=O)c1N1CCN(c2ccc([N+](=O)[O-])cc2)CC1 [Compound 10, 2-Amino-6-methyl-5-[4-(4-nitrophenyl)piperazin-1-yl]pyrimidin-4(3H)-one] | selective cytotoxicity | > 100 | > 100 | > 100 | < 10 | > 100 | > 100 | > 100 | – | < 10 | – | –
Cc1nc(N)[nH]c(=O)c1N1CCN(c2ccc(S(=O)(=O)N(Cc3ccccc3)Cc3ccccc3)cc2)CC1 [Compound 11] | – | 4.8 to 79 | 2.1 to 37 | 55 | – | 1.9 to 3.5 | 3.1 to 27 | 0.7 to 16 | – | – | 3.68 | –
Cc1nc(N)[nH]c(=O)c1N1CCN(c2ccc(S(N)(=O)=O)cc2)CC1 [Compound 12, 4-[4-(2-Amino-6-methyl-4-(3H)-oxopyrimidin-5-yl)-piperazin-1-yl]benzenesulfonamide] | selective cytotoxicity | > 100 | > 100 | > 100 | 100 | > 100 | > 100 | > 100 | – | – | – | –
Nc1nc2c(c(=O)[nH]1)CC(CCc1ccc(C(=O)N[C@@H](CCC(=O)O)C(=O)O)cc1)CN2 (stereo partly shown) [DDATHF, 5,10-dideaza-5,6,7,8-tetrahydrofolic acid] | – | – | – | – | – | – | – | – | – | – | – | potent inhibitor
